The data set relates to CCRIS mutagenicity, Ames/micronucleus/aberration tests. As to the kind of experiment: CCRIS mutagenicity studies.
[1] abbreviates: Test System: AMES SALMONELLA TYPHIMURIUM, Strain/Indicator: TA98, Metabolic Activation: NONE, Method: PREINCUBATION

“Also recorded” adds a separate entry of the source. Active and inactive are the calls of the source. How the calls were made is not given here.

Consider `CCSC(C)CC1CC(=O)C(/C(CC)=N/OC/C=C/Cl)=C(O)C1` (stereo not drawn), for which the mutagenic call (End Point: In vitro chromosomal aberrations, Test System: Chinese hamster ovary (CHO) cells, Metabolic Activation: None) is “inactive; negative (purity 96.1%); also recorded: active; positive (structural changes; purity 81.4%)”; the mutagenic call (End Point: In vitro chromosomal aberrations, Test System: Chinese hamster ovary (CHO) cells, Metabolic Activation: Rat, liver, S-9, Aroclor 1254) is “inactive; negative (purity 96.1%)”; the mutagenic call (End Point: In vivo chromosomal aberrations, Test System: Bone marrow, Species: Rat, Strain/Sex: Sprague-Dawley/Female, Route: Gavage) was “inactive; negative (purity 83.3%)”; the mutagenic call (End Point: In vivo chromosomal aberrations, Test System: Bone marrow, Species: Rat, Strain/Sex: Sprague-Dawley/Male, Route: Gavage) is “inactive; negative (purity 83.3%)”; the mutagenic call (Test System: Ames Salmonella typhimurium, Strain/Indicator: TA98, Metabolic Activation: None, Method: Standard Plate) was “inactive; negative (purity 83.3%)”; the mutagenic call (Test System: Ames Salmonella typhimurium, Strain/Indicator: TA98, Metabolic Activation: Rat, liver, S-9, Aroclor, Method: Standard Plate) was “inactive; negative (purity 83.3%)”. For the same compound, the mutagenic call reads like this: (Test System: Ames Salmonella typhimurium, Strain/Indicator: TA100, Metabolic Activation: None, Method: Standard Plate) “inactive; negative (purity 83.3%)”; (Test System: Ames Salmonella typhimurium, Strain/Indicator: TA100, Metabolic Activation: Rat, liver, S-9, Aroclor, Method: Standard Plate) “inactive; negative (purity 83.3%)”; (Test System: Ames Salmonella typhimurium, Strain/Indicator: TA1535, Metabolic Activation: None, Method: Standard Plate) “inactive; negative (purity 83.3%)”; (Test System: Ames Salmonella typhimurium, Strain/Indicator: TA1535, Metabolic Activation: Rat, liver, S-9, Aroclor, Method: Standard Plate) “inactive; negative (purity 83.3%)”; (Test System: Ames Salmonella typhimurium, Strain/Indicator: TA1537, Metabolic Activation: None, Method: Standard Plate) “inactive; negative (purity 83.3%)”; (Test System: Ames Salmonella typhimurium, Strain/Indicator: TA1537, Metabolic Activation: Rat, liver, S-9, Aroclor, Method: Standard Plate) “inactive; negative (purity 83.3%)”. Moreover, the mutagenic call reads like this: (Test System: E. coli, Strain/Indicator: WP2uvrA, Metabolic Activation: None, Method: Standard Plate) “inactive; negative (purity 83.3%)”; (Test System: E. coli, Strain/Indicator: WP2uvrA, Metabolic Activation: Rat, liver, S-9, Aroclor, Method: Standard Plate) “inactive; negative (purity 83.3%)”; (Test System: UDS Mouse hepatocytes, Strain/Indicator: Thymidine incorporation, Metabolic Activation: Activation in whole animal, Method: Autoradiography) “inactive; negative (purity 83.3%)”.
Regarding `Nc1ccc2ccccc2c1N=Nc1ccc([N+](=O)[O-])cc1`, the mutagenic call is, setting by setting: (Test System: AMES SALMONELLA TYPHIMURIUM, Strain/Indicator: TA97, Metabolic Activation: HAMSTER, LIVER, S-9, AROCLOR 1254 (10%), Method: PREINCUBATION) “active; positive”; (Test System: AMES SALMONELLA TYPHIMURIUM, Strain/Indicator: TA97, Metabolic Activation: NONE, Method: PREINCUBATION) “active; positive”; (Test System: AMES SALMONELLA TYPHIMURIUM, Strain/Indicator: TA97, Metabolic Activation: RAT, LIVER, S-9, AROCLOR 1254 (10%), Method: PREINCUBATION) “active; positive”; (Test System: AMES SALMONELLA TYPHIMURIUM, Strain/Indicator: TA98, Metabolic Activation: HAMSTER, LIVER, S-9, AROCLOR 1254 (10%), Method: PREINCUBATION) “active; positive”; under setting [1], “active; positive”; (Test System: AMES SALMONELLA TYPHIMURIUM, Strain/Indicator: TA98, Metabolic Activation: RAT, LIVER, S-9, AROCLOR 1254 (10%), Method: PREINCUBATION) “active; positive”. Also, the mutagenic call (Test System: AMES SALMONELLA TYPHIMURIUM, Strain/Indicator: TA100, Metabolic Activation: HAMSTER, LIVER, S-9, AROCLOR 1254 (10%), Method: PREINCUBATION) was “active; positive”; the mutagenic call (Test System: AMES SALMONELLA TYPHIMURIUM, Strain/Indicator: TA100, Metabolic Activation: NONE, Method: PREINCUBATION) is “inactive; negative”; the mutagenic call (Test System: AMES SALMONELLA TYPHIMURIUM, Strain/Indicator: TA100, Metabolic Activation: RAT, LIVER, S-9, AROCLOR 1254 (10%), Method: PREINCUBATION) was “active; positive”; the mutagenic call (Test System: AMES SALMONELLA TYPHIMURIUM, Strain/Indicator: TA1535, Metabolic Activation: HAMSTER, LIVER, S-9, AROCLOR 1254 (10%), Method: PREINCUBATION) was “inactive; negative”; the mutagenic call (Test System: AMES SALMONELLA TYPHIMURIUM, Strain/Indicator: TA1535, Metabolic Activation: NONE, Method: PREINCUBATION) was “inactive; negative”; the mutagenic call (Test System: AMES SALMONELLA TYPHIMURIUM, Strain/Indicator: TA1535, Metabolic Activation: RAT, LIVER, S-9, AROCLOR 1254 (10%), Method: PREINCUBATION) is “inactive; negative”.
As to `Nc1cccc2nc3cccc(N)c3nc12`, the mutagenic call is, setting by setting: under setting [1], “inactive; negative”; (Test System: AMES SALMONELLA TYPHIMURIUM, Strain/Indicator: TA98, Metabolic Activation: RAT, LIVER, S-9, PCB, Method: PREINCUBATION) “inactive; negative”.
As to `CC(C)(C)NC[C@H](O)COc1nsnc1N1CCOCC1`, the mutagenic call by setting is: (Test System: AMES SALMONELLA TYPHIMURIUM, Strain/Indicator: TA98, Metabolic Activation: NONE, Method: STANDARD PLATE) “inactive; negative”; (Test System: AMES SALMONELLA TYPHIMURIUM, Strain/Indicator: TA98, Metabolic Activation: RAT, LIVER, S-9, AROCLOR 1254, Method: STANDARD PLATE) “inactive; negative”; (Test System: AMES SALMONELLA TYPHIMURIUM, Strain/Indicator: TA100, Metabolic Activation: NONE, Method: STANDARD PLATE) “inactive; negative”; (Test System: AMES SALMONELLA TYPHIMURIUM, Strain/Indicator: TA100, Metabolic Activation: RAT, LIVER, S-9, AROCLOR 1254, Method: STANDARD PLATE) “inactive; negative”.
For the compound `O=[N+]([O-])C1c2ccccc2-c2ccccc21`, the mutagenic call was “active; positive” (End Point: IN VITRO CHROMOSOMAL ABERRATIONS, Test System: CHINESE HAMSTER LUNG (CHL) CELLS, Metabolic Activation: NONE); “active; positive” (End Point: IN VITRO CHROMOSOMAL ABERRATIONS, Test System: CHINESE HAMSTER LUNG (CHL) CELLS, Metabolic Activation: NONE, Method: FISH); “active; positive” (End Point: IN VITRO CHROMOSOMAL ABERRATIONS, Test System: CHINESE HAMSTER LUNG (CHL) CELLS, Metabolic Activation: RAT, LIVER, S-9, KC-400); “active; positive” (Test System: E. COLI, Strain/Indicator: WP2 UVRA, Metabolic Activation: NONE, Method: FLUCTUATION).
For the compound `Cc1cccc2c3c(c4cc5ccccc5cc4c12)N3`, the mutagenic call under setting [1] is “active; positive”.
